Measurements: paper PMC8877905, “Novel Cocrystals of Vonoprazan: Machine Learning-Assisted Discovery” (Pharmaceutics, 2022)
Read-outs that look alike come from different tables or passages of the source.

How the values were obtained:
[1] = pKa calculation with ChemAxon calculator and ΔpKa rule; conditions: pKa (base) − pKa (acid); VPZ pKa = 9.4 versus calculated coformer pKa
From the text: The combination with a value 0 ≤ ΔpKa ≤ 3 is much less predictable and falls within a “salt-cocrystal continuum” [38]. We applied this approach to the coformers selected based on virtual cocrystal screening to assess whether the combination would form a cocrystal or salt (Table 1).

[2] = Stability in aqueous solution: PXRD of solids remaining after 24 h slurry; type: physicochemical; conditions: pH 6.8 solution, slurry for 24 h
Experimental: The solubility and dissolution behavior of drugs in aqueous solvent are important physicochemical properties for good oral bioavailability. VPZ has pH-dependent solubility, which increases with decreasing pH. […] The aqueous solubility for cocrystals and salts of VPZ was measured in pH 1.2 and 6.8 buffer solutions at 37 °C. VPZ concentrations were determined in aliquots retrieved from the suspensions after 24 h by HPLC. One of the major challenges in investigations of solubility in multicomponent solid forms is the change in the solution composition due to precipitation of the components dissociated over the test period. In this study, the stability of the cocrystals in aqueous solution was checked by PXRD analysis of the solids remaining after solubility experiments. At pH 1.2, however, the amount recovered from the suspensions was too low to confirm their stability. […] Under both conditions, the solubility order was VPZ–RES > VPZ–CAT > VPZ–GAL.

[3] = Intrinsic dissolution rate (IDR) in phosphate buffer pH 6.8; type: physicochemical; conditions: for IDR in pH 6.8: phosphate buffer pH 6.8, 37 °C, 50 rpm, 13 mm pellet
Experimental: IDR was investigated using a Distek […] dissolution tester (Distek, North Brunswick, NJ, USA). […] Aliquots of 1.5 mL of the dissolution samples were collected at predetermined time intervals, filtered through 0.45 μm syringe filters, and analyzed for their VPZ concentration by HPLC. The VPZ concentration was measured using an HPLC system (UFLC; Shimadzu) with a diode array detector and Shim-pack GIS-ODS C18 column (4.6 × 250 mm, 5 μm). […] The volume of the injected samples was 10 μL and the VPZ content was assayed spectrophotometrically at a wavelength of 245 nm.

[4] = Accelerated stability testing in the solid state; type: physicochemical
[5] = parameters: method as in PMID 28578848; conditions: cited from earlier work
[6] = Equilibrium solubility in pH 1.2 and pH 6.8 solutions, 37 °C, 24 h, HPLC; type: physicochemical; conditions: for solubility thermodynamic at 24 h: 37 °C, VPZ concentration by HPLC
Experimental: Excess amounts (~500 mg) of powder samples were added to 10 mL of pH 1.2 solution and 30 mL of pH 6.8 solution. […] After 24 h, aliquots of 2.5 mL were withdrawn from the suspension using a 0.45 μm nylon syringe filter and diluted immediately, followed by analysis of the VPZ concentration by HPLC.
The VPZ concentration was measured using an HPLC system (UFLC; Shimadzu) with a diode array detector and Shim-pack GIS-ODS C18 column (4.6 × 250 mm, 5 μm). HPLC analysis was conducted at a column oven temperature of 40 °C with a flow rate of 1 mL/min, and the mobile phase was a mixture of 20 mM ammonium formate in water (pH 3.05) and HPLC-grade MeOH with the addition of 10 mM triethylamine (TEA) (80% : 20%, v/v). The volume of the injected samples was 10 μL and the VPZ content was assayed spectrophotometrically at a wavelength of 245 nm.

Row | Molecule | ΔpKa [1] | also measured
1 | O=C(O)c1ccc(O)cc1 [4-hydroxybenzoic acid] | 5.02 | 
2 | NC(=O)c1ccccc1 [Benzamide] | −5.16 | 
3 | NC(=O)CO [Glycolamide] | −4.25 | 
4 | Oc1ccc(O)cc1 [Hydroquinone] | −0.58 | 
5 | NC(=O)c1ccncc1 [Isonicotinamide] | −4.31 | 
6 | Cc1cc(O)ccc1O [Methyl-hydroquinone] | −0.7 | 
7 | NC(=O)c1cccnc1 [Nicotinamide] | −3.99 | 
8 | NC(=O)C(=O)O [Oxamic acid] | 6.92 | 
9 | Oc1ccccc1O [Pyrocatechol] | −0.24 | 
10 | Oc1cccc(O)c1O [Pyrogallol] | 0.3 | 
11 | O=C1CC[C@@H](C(=O)O)N1 [Pyroglutamic acid] | 5.79 | 
12 | CNCc1cc(-c2ccccc2F)n(S(=O)(=O)c2cccnc2)c1.O=C(O)/C=C/C(=O)O [VPZ-FUM, 1-[5-(2-Fluorophenyl)-1-(pyridin-3-ylsulfonyl)-1H-pyrrol-3-yl]-N-methylmethanamine monofumarate] |  | stability in aqueous solution (PXRD of undissolved residue) [2]: different from those of the starting material; time to reach peak concentration in IDR plot ([3]; pH 6.8 buffer): ≤ 60 min; IDR in pH 6.8 [3]: 1.35 mg/cm^2∙min; stability in the solid state [4]: remained stable; reported solubility in water [5]: < 1000 µg/mL; solubility at 24 h ([6]; Figure 7a, pH 1.2 buffer, read-out: Solubility in pH 1.2 buffer, Concentration): 27600 µg/mL; solubility at 24 h ([6]; Figure 7b, pH 6.8 buffer, read-out: Solubility in pH 6.8 buffer, Concentration): 3400 µg/mL; solubility thermodynamic at 24 h ([6]; pH 1.2 solution, read-out: Equilibrium Solubility after 24 h in pH 1.2): 27710 ± 210 µg/mL; solubility thermodynamic at 24 h ([6]; pH 6.8 solution, read-out: Equilibrium Solubility after 24 h in pH 6.8): 3400 ± 450 µg/mL
13 | Vonoprazan–pyrogallol [VPZ-GAL] |  | IDR in pH 6.8 [3]: 0.69 mg/cm^2∙min

Further lines, with some results ahead:

Row | ΔpKa [1] | Molecule | also measured
14 | 5.78 | O=C(O)c1ccc[nH]1 [Pyrrole-2-carboxylic acid] | 
15 | −0.17 | Oc1cccc(O)c1 [Resorcinol] | 
16 | 5.54 | O=C(O)CCC(=O)O [Succinic acid] | 
17 | −6.9 | NC(N)=O [Urea] | 
18 | 7.46 | O=C1NS(=O)(=O)c2ccccc21 [saccharin] | 
